Measurements from patent publication US20240124483A1, “Methods for the Treatment of Fibrotic Disease” (SHY Therapeutics, LLC, priority 2021, published 2024).
Where two headings read alike, the source gives them in different places.

Key:
Smad2/3 phosphorylation = experiment: Phospho-Smad2/3 Inhibition Assay in Panc-1 (western blot); type: cell-based; conditions: Homo sapiens; for inhibition at 10 µM: 3 hours, PANC-1 stimulated with 10 ng/ml TGF-b1 for 1 hour, read-out: % inh of Smad2/3 phosphorylation in PANC-1; for IC50: PANC-1, TGF-b1 stimulated
Description: Cell lines: Human tumor-derived pancreatic cancer cell line Panc-1 and mouse muscle myoblast C2C12 were purchased from American Type Culture Collection and grown in complete DMEM-High Glucose, supplemented with penicillin (100 U/mL), streptomycin (100 μg/mL), and 10% heat-inactivated FBS at 37° C. in a humidified incubator with 5% CO2.
Method: Cells were plated at 350000 cells/well density in a 12-well plate, allowed 3 hours to adhere to the plate, then starved in the appropriate medium in the presence of 0.5% FBS overnight. The small molecules to be tested were added to the cells in the final concentration of 10 μM in the presence of 0.3% DMSO for 3 hours incubation at 37° C. For IC50 value determination, serial dilutions of compounds were added to cells under the same conditions. Next, Panc-1 cells were stimulated with 10 ng/ml TGF-b1 for 1 hour, and C2C12 cells were stimulated with 10 ng/ml TGF-b1 for 20 minutes (recombinant human TGF-b1, R&D Systems). After stimulation cells were lysed with lysis buffer containing 1% Triton X-100, EDTA, and Halt™ Protease & Phosphatase Inhibitor Cocktail (Thermo Scientific). Protein concentration was assessed by BCA protein assay (Thermo Scientific). Phosphorylation level of Smad2/Smad3 was determined by western blot.
Western blot protocol: Equal amounts of protein (15-50 μg) were separated by SDS-PAGE and transferred to nitrocellulose membranes (Invitrogen by Thermo Fisher Scientific). The membrane was stained with Ponceau S Stain (Boston BioProducts) to verify uniform protein loading. Membranes were blocked with 10% milk and phosphorylation levels of Smad2/Smad3 were assessed by incubating overnight at 4° C. with the following antibodies: Phospho-Smad2 (Ser465/467) and Phosph-Smad3 (Ser423/425), both from Cell Signaling Technology. Then the membranes were incubated with HRP-conjugated secondary antibody (Jackson Immunoresearch, West Grove, PA). Bands were incubated in Amersham ECL Prime Western Blotting Detection Reagent (GE Healthcare) and visualized using the ChemiDoc MP imaging system (Bio-Rad).

KRas G12C mutant = KRas G12C mutant (Homo sapiens (Human), UniProt P01116, G12C); experiment: Ras GTP Binding Domain Inhibition Assay, KRas G12C mutant
KRas G12C mutant, sequence (P01116 other isoform, or with tags, fused parts or gaps G12C): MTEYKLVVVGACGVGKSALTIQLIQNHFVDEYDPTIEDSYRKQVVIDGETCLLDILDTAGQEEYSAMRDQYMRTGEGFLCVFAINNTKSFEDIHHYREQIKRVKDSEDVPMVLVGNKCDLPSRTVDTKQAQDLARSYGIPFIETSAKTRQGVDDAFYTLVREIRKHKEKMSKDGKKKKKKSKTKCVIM
Description: (§1) A Ras Superfamily Activity Assay (as disclosed in International Application No. PCT/US2018/038613, filed Jun. 20, 2018, which is incorporated by reference in its entirety) was used as a specific assay to evaluate compounds against the following for the following Ras Superfamily proteins: KRas wild type, KRas Q61H mutant, KRas G12C mutant, KRas G12D mutant, Rac-1, and Rho-A.
(§2) Buffer-I: • 25 mM Tris-HCl, pH 7.4 • 27 mM KCl • 137 mM NaCl • 1 mM MgCl2 • 1 mM DTT
(§3) Buffer-II: • 50 mM Tris-HCl, pH 7.0 • 1 mM MgCl2 • 1 mM DTT
(§4) The small GTPases proteins: KRas wild type. KRas Q61H mutant, KRas G12C mutant, KRas G12D mutants, Rac-1, and Rho-A were expressed as His-tagged proteins. In addition, the Guanosine nucleotide Exchange Factor (GEF) Sos protein (residues 556-1049) was expressed as a His-tagged protein. In cells, the guanine nucleotide exchange factor Sos protein promotes activation of Ras proteins by stimulating an exchange of GDP for GTP. The inclusion of Sos to the Ras GTP binding domain inhibition assay may be considered as an alternative representation of physiological cellular conditions for evaluating the inhibitory activity of some of the tested small molecules.
(§5) For the assay, all purified small GTPases proteins were diluted in Buffer-I or Buffer-II to a final concentration of 10-30 μg/mL. 200 μL of each diluted protein was added to a nickel-coated 96-well plate and incubated overnight at 4° C. Then the protein solution was discarded and 200 μL of Buffer-I or Buffer-II was added to each well in the presence of 1% DMSO. Compounds to be tested were added to the protein-coated wells at final concentration of 20 μM, and incubated for 3 hours at room temperature with and without 10-30 μg/mL of Sos added to the final hour of the incubation. When performing IC50 measurements a serial dilution of all tested concentrations was added. Then Cy3-GTP or Cy5-GTP was added to each well to a final concentration of 100 nM. The labeled GTP was incubated for 45 minutes at room temperature. Following GTP incubation, wells were washed 3× in Buffer-I or Buffer-II and 200 μL of Buffer-I or Buffer-II was added to each well. Following washes, the amount of bound labeled-GTP was measured using a SpectraMax M3 (Molecular Devices).

MiaPaca2 = MiaPaca2 proliferation; type: cell-based; conditions: Homo sapiens, MIA PaCa-2; for inhibition at 10 µM: read-out: % inh of proliferation in MiaPaca2
KRas Q61H mutant = KRas Q61H mutant (Homo sapiens (Human), UniProt P01116, Q61H); experiment: Ras GTP Binding Domain Inhibition Assay, KRas Q61H mutant
KRas Q61H mutant, sequence (P01116 other isoform, or with tags, fused parts or gaps Q61H): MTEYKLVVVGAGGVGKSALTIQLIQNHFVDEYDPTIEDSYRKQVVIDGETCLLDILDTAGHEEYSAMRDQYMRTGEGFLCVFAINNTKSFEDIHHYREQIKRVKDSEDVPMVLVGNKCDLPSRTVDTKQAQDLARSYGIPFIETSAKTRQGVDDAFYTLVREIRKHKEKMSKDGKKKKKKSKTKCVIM
Description: as §1, §2, §3, §4, §5

KRas G12D mutant = KRas G12D mutant (Homo sapiens (Human), UniProt P01116, G12D); experiment: Ras GTP Binding Domain Inhibition Assay, KRas G12D mutant; conditions: for inhibition at 20 µM: Table 7; for KRas G12D mutant + SOS: % inh. / KRas G12D mutant: % inh.: 20 uM, Table 8
KRas G12D mutant, sequence (P01116 other isoform, or with tags, fused parts or gaps G12D): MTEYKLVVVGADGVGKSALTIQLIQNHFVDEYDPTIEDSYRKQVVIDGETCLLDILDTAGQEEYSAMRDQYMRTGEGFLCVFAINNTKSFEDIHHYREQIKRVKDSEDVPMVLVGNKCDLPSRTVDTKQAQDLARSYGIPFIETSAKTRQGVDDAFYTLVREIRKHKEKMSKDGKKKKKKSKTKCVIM
Description: as §1, §2, §3, §4, §5

[1] = + SOS, read-out: KRas G12C mutant + SOS: % inh.
[2] = without SOS, read-out: KRas G12C mutant: % inh.
[3] = + SOS, read-out: KRas Q61H mutant + SOS: % inh.
[4] = without SOS, read-out: KRas Q61H mutant: % inh.
[5] = + SOS, read-out: KRas G12D mutant + SOS: % inh.
[6] = without SOS, read-out: KRas G12D mutant: % inh.

SMILES | inhibition at 10 µM (Smad2/3 phosphorylation) [%] | inhibition at 20 µM (KRas G12C mutant; [1]) [%] | inhibition at 20 µM (KRas G12C mutant; [2]) [%] | IC50 (MiaPaca2) [µM] | inhibition at 10 µM (MiaPaca2) [%] | inhibition at 20 µM (KRas Q61H mutant; [3]) [%] | inhibition at 20 µM (KRas Q61H mutant; [4]) [%] | inhibition at 20 µM (KRas G12D mutant; [5]) [%] | KRas G12D mutant + SOS: % inh. (KRas G12D mutant; + SOS) | inhibition at 20 µM (KRas G12D mutant; [6]) [%] | KRas G12D mutant: % inh. (KRas G12D mutant; without SOS) | IC50 (Smad2/3 phosphorylation) [µM] | IC50 (KRas Q61H mutant; + SOS) [µM]
COC1CCCN(c2nc(-c3nccn3C)nc3sc(-c4ccn(C(C)C)n4)c(C)c23)C1 (racemic) [Compound 14, rac-6-(1-Isopropyl-1H-pyrazol-3-yl)-4-(3-methoxypiperidin-1-yl)-5-methyl-2-(1-methyl-1H-imidazol-2-yl)thieno[2,3-d]pyrimidine] | 46 to 75 | 76 to 100 | 26 to 45 | 5 to 10 | 76 to 100 | 76 to 100 | 26 to 45 | – | – | – | – | – | –
COCC1CN(c2nc(-c3nccn3C)nc3sc(-c4ccn(C(C)C)n4)c(C)c23)CCO1 (racemic) [Compound 15, 4-(6-(1-Isopropyl-1H-pyrazol-3-yl)-5-methyl-2-(1-methyl-1H-imidazol-2-yl)thieno[2,3-d]pyrimidin-4-yl)-2-(methoxymethyl)morpholine] | 26 to 45 | 76 to 100 | 46 to 75 | 5 to 10 | 46 to 75 | 76 to 100 | 76 to 100 | 76 to 100 | D (D = 76-100% inhibition) | 76 to 100 | D (D = 76-100% inhibition) | – | –
COCCO[C@H]1CC[C@@H](Nc2nc(-c3nccn3C)nc3sc(-c4ccn(C(C)C)n4)c(C)c23)C1 (racemic) [Compound 20, rac-6-(1-Isopropyl-1H-pyrazol-3-yl)-N-((1R,3S)-3-(2-methoxyethoxy)cyclopentyl)-5-methyl-2-(1-methyl-1H-imidazol-2-yl)thieno[2,3-d]pyrimidin-4-amine] | 1 to 25 | 76 to 100 | 76 to 100 | 1 to 4.99 | 76 to 100 | 76 to 100 | 46 to 75 | 76 to 100 | D (D = 76-100% inhibition) | 76 to 100 | D (D = 76-100% inhibition) | – | –
Cc1c(-c2ccn(C(C)C)n2)sc2nc(-c3nccn3C)nc(NCC3COCCN3C)c12 (racemic) [Compound 24, rac-6-(1-Isopropyl-1H-pyrazol-3-yl)-5-methyl-2-(1-methyl-1H-imidazol-2-yl)-N-((4-methylmorpholin-3-yl)methyl)thieno[2,3-d]pyrimidin-4-amine] | 0 | 76 to 100 | 46 to 75 | 5 to 10 | 76 to 100 | 76 to 100 | 46 to 75 | 76 to 100 | D (D = 76-100% inhibition) | 46 to 75 | C (C = 46-75% inhibition) | – | –
Cc1c(-c2ccn(C(C)C)n2)sc2nc(-c3nccn3C)nc(NCC3CN(C)CCO3)c12 (racemic) [Compound 25, rac-6-(1-Isopropyl-1H-pyrazol-3-yl)-5-methyl-2-(1-methyl-1H-imidazol-2-yl)-N-((4-methylmorpholin-2-yl)methyl)thieno[2,3-d]pyrimidin-4-amine] | 0 | 76 to 100 | 76 to 100 | 5 to 10 | 46 to 75 | 76 to 100 | 76 to 100 | 76 to 100 | D (D = 76-100% inhibition) | 76 to 100 | D (D = 76-100% inhibition) | – | –
Cc1c(-c2ccn(C(C)C)n2)sc2nc(-c3nccn3C)nc(NCC3CCCO3)c12 (racemic) [Compound 26, rac-6-(1-Isopropyl-1H-pyrazol-3-yl)-5-methyl-2-(1-methyl-1H-imidazol-2-yl)-N-((tetrahydrofuran-2-yl)methyl)thieno[2,3-d]pyrimidin-4-amine] | 0 | 76 to 100 | 76 to 100 | > 10 | 46 to 75 | 76 to 100 | 76 to 100 | 46 to 75 | C (C = 46-75% inhibition) | 76 to 100 | D (D = 76-100% inhibition) | – | –
COCCNc1nc(-c2cn(C)cn2)nc2sc(-c3cccc(OC)c3Cl)c(-c3ccc(OC)cc3)c12 [Compound 8, 6-(2-Chloro-3-methoxyphenyl)-N-(2-methoxyethyl)-5-(4-methoxyphenyl)-2-(1-methyl-1H-imidazol-4-yl)thieno[2,3-d]pyrimidin-4-amine] | 76 to 100 | 76 to 100 | 26 to 45 | – | – | 76 to 100 | 46 to 75 | 26 to 45 | B (B = 26-45% inhibition) | 26 to 45 | B (B = 26-45% inhibition) | 5 to 10 | –
COCCNc1nc(-c2nccn2C)nc2sc(-c3cccc(OC)c3Cl)c(-c3ccccc3)c12 [Compound 9, 6-(2-Chloro-3-methoxyphenyl)-N-(2-methoxyethyl)-2-(1-methyl-1H-imidazol-2-yl)-5-phenylthieno[2,3-d]pyrimidin-4-amine] | 76 to 100 | 76 to 100 | 26 to 45 | – | – | 76 to 100 | 46 to 75 | 46 to 75 | C (C = 46-75% inhibition) | 46 to 75 | C (C = 46-75% inhibition) | 1 to 4.99 | –
COCCn1ccnc1-c1nc(N[C@H]2C[C@@H](OC)C2)c2c(-c3ccccc3)c(-c3ccn(C)n3)sc2n1 [Compound 13, N-((1s,3s)-3-methoxycyclobutyl)-2-(1-(2-methoxyethyl)-1H-imidazol-2-yl)-6-(1-methyl-1H-pyrazol-3-yl)-5-phenylthieno[2,3-d]pyrimidin-4-amine] | 46 to 75 | 76 to 100 | 76 to 100 | – | – | 76 to 100 | 76 to 100 | 76 to 100 | D (D = 76-100% inhibition) | 46 to 75 | C (C = 46-75% inhibition) | – | 1 to 4.99
